Laboratory results: paper PMC6508677, “Identification of druggable small molecule antagonists of the Plasmodium falciparum hexose transporter PfHT and assessment of ligand access to the glucose permeation pathway via FLAG-mediated protein engineering” (PLoS ONE, 2019)

Assays:
[1] = system: GLUT1 Y293I; set-up: method as in PMID 8157690; conditions: GLUT1 Y293I vs wild type; cited from earlier work
[2] = molecular target: T1, hGLUT5 (Homo sapiens, UniProt P22732); test: [3H]-D-fructose uptake by HEK293 cells overexpressing GLUT5; assay type: cell-based
T1 construct: expressed in transfected cells; host or cells: HEK293 (HEK293-FLIP); native hGLUT1 not knocked down in this line
T1 sequence (P22732 1-501): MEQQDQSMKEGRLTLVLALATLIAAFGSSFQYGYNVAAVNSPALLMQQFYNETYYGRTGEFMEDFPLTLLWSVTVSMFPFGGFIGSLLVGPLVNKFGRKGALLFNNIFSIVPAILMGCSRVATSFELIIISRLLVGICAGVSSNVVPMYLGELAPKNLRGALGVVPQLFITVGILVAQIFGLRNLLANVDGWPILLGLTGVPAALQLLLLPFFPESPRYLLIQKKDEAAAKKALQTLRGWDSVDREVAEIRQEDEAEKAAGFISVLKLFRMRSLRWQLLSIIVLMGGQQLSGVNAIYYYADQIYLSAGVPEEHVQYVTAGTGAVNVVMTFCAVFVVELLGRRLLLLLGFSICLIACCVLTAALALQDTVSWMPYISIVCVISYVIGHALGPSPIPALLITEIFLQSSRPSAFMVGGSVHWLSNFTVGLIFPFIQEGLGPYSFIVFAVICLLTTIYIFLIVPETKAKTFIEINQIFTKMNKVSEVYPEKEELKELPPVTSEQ
Source text: Generation of HEK293 cells overexpressing PfHT and human GLUTs 1–4 were described elsewhere. Briefly, HEK293 cells were transfected with pcDNA3.1 FLII12Pglu-7006 (Addgene), containing the fluorescence resonance energy transfer (FRET) glucose sensor (HEK293-FLIP) and PfHT, human GLUT1 (hGLUT1), hGLUT2, hGLUT3, hGLUT4, hGLUT5 or hGLUT8 using Optifect (Life Technologies) according to manufacturer’s specifications. To increase retention of GLUT8 at the plasma membrane, the dileucine sorting signal E^7E^8XXXLL was modified to R^7R^8XXXLL as described in [17]. Stable transfectants were selected for G418 and hygromycin resistance to select for FRET sensor and hexose transporter, respectively. HEK293-FLIP cells were also used to generate cells stably transfected with FLAG-tagged PfHT (FTPfHT). FLAG tag ([…]) followed by a triple glycine linker and a tobacco etch virus (TEV) protease site (ENLYFQS) followed by a triple glycine linker was added to the N-terminus of PfHT via PCR [18] using Phusion Hot Start II High-Fidelity DNA Polymerase (Fisher Scientific). Single clones were selected by comparing their abilities to transport glucose as assayed via FRET and radiolabeled hexose uptake. In all cell lines, except for HEK293 cells overexpressing hGLUT1 and hGLUT5, native hGLUT1 was knocked down using shRNA as described elsewhere. Transcript levels of the individual GLUTs expressed in each cell line are as described in [13, 15] and in S1 Fig.
Glucose uptake by P. falciparum was performed essentially as described. P. falciparum strain 3D7 was cultured in 100 mm tissue culture dishes (Techno Plastic Products) in a 2% suspension of human erythrocytes and RPMI 1640 medium until reaching > 7.5% parasitemia. Cells were pelleted via centrifugation and resuspended in RPMI 1640 medium. To determine the uptake of radiolabeled glucose into the parasite, parasites were isolated from infected erythrocytes by permeablization with saponin (0.05 w/v), followed by centrifugation, aspiration of supernatant and washing of the pellet 3X with saline solution (135 mM NaCl, 2 mM KCl, 25 mM HEPES, 0.2 mM glucose and 1 mM MgCl2; pH 7.1) to remove cellular debris. WU-1 or DMSO vehicle were added to 100 μl parasites (resuspended in saline) 5 min prior to the addition of 100 μl [^14C]2-DOG (0.2- μCi/ml final concentration). 2-DG uptake was stopped after 2 min by layering the entire reaction over 300 μl of an oil mixture (5:4 mix of dibutyl phthalate / dinonyl phthalate) in Eppendorf tubes and centrifuged at 15,850 × g for 2 mins. The ratio of the estimated intracellular concentration of radiolabel relative to the extracellular concentration were calculated as described. Uptake of radiolabeled hexose into HEK293 cells was measured in glucose-free HBSS as described previously. Briefly, cells were plated at 400,000 cells/well overnight at 37°C in 24-well plates pre-treated with PEI. After 30-min incubation at 37°C in glucose-free HBSS in the presence of vehicle or increasing concentrations of compound, 2-DG uptake was measured in glucose-free HBSS for 4 min at 37°C. Cultures were washed in ice-cold 1X PBS and lysed in 0.1% Triton X-100 in 1X PBS. Radiolabeled hexose uptake was determined by liquid scintillation counting (Ultima Gold, Thermo Fisher) and normalized to total protein per well. Uptake data are plotted as percent uptake relative to vehicle-treated cells. Kinetic analyses were performed using the indicated concentrations of substrate and WU-1, with quenching of uptake after 1 min incubation. Incubation times had been previously determined as being in the linear range of time-dependent radiolabeled hexose uptake (2 min for 2-DG uptake into freed parasites; 2 and 4 min for D-Frc and 2-DG uptake HEK cell lines, respectively). Data were fit by least squares nonlinear regression analysis using GraphPad Prism 6.0 software.

Compound | increase of Ki by Y293I mutation [1] | IC50 (µM) ([2]; GLUT5, D-frc Uptake) | IC50, D-fructose (Frc) uptake ([2]; GLUT5 cell line) | remaining activity at 0.001 µM ([2]; HEK293, 2 min, GLUT5, concentration 0.001 µM, read-out: D-frc Uptake AVE) | remaining activity at 0.3125 µM ([2]; HEK293, 2 min, GLUT5, concentration 0.3125 µM, read-out: D-frc Uptake AVE) | remaining activity at 0.625 µM ([2]; HEK293, 2 min, GLUT5, concentration 0.6250 µM, read-out: D-frc Uptake AVE) | remaining activity at 1.25 µM ([2]; HEK293, 2 min, GLUT5, concentration 1.2500 µM, read-out: D-frc Uptake AVE) | remaining activity at 2.5 µM ([2]; HEK293, 2 min, GLUT5, concentration 2.5000 µM, read-out: D-frc Uptake AVE) | remaining activity at 5 µM ([2]; HEK293, 2 min, GLUT5, concentration 5 µM, read-out: D-frc Uptake AVE) | remaining activity at 10 µM ([2]; HEK293, 2 min, GLUT5, concentration 10 µM, read-out: D-frc Uptake AVE) | remaining activity at 20 µM ([2]; HEK293, 2 min, GLUT5, concentration 20 µM, read-out: D-frc Uptake AVE) | remaining activity at 40 µM ([2]; HEK293, 2 min, GLUT5, concentration 40 µM, read-out: D-frc Uptake AVE) | remaining activity at 80 µM ([2]; HEK293, 2 min, GLUT5, concentration 80 µM, read-out: D-frc Uptake AVE) | remaining activity at 160 µM ([2]; HEK293, 2 min, GLUT5, concentration 160 µM, read-out: D-frc Uptake AVE) | remaining activity at 225 µM ([2]; HEK293, 2 min, GLUT5, concentration 225 µM, read-out: D-frc Uptake AVE) | Selectivity Index (PfHT over GLUT5), Frc ([2]; calculated from IC50s)
C=C1[C@@H](C)[C@H]2[C@H](Cc3ccccc3)NC(=O)[C@]23OC(=O)/C=C/[C@H](O)CCC[C@@H](C)C/C=C/[C@H]3[C@@H]1O [CB, cytochalasin B] | > 100 fold | – | – | – | – | – | – | – | – | – | – | – | – | – | – | –
Cc1ccc(S(=O)(=O)CCNC(=O)c2c(-c3c(Cl)cccc3Cl)noc2C)cc1 [WU-1, 3-(2,6-dichlorophenyl)-5-methyl-N-[2-(4-methylbenzenesulfonyl)ethyl]-1,2-oxazole-4-carboxamide] | – | ambiguous | n.i. | 100% | 78.1% | 82.9% | 96.7% | 102% | 89.8% | 87.6% | 103% | 108% | 110% | 111% | 125% | n.i.
